According to patent publication US20100124538A1, “TOPICAL APPLICATION OF FLUOCINOLONE ACETONIDE FOR DEPIGMENTATION OF THE SKIN” (GALDERMA RESEARCH & DEVELOPMENT, priority 2007, published 2010):

Experiments:
[1] = system: melasma; details: cited from earlier work
[2] = system: tail of SKH:HR2 mice; experiment: Clinical pigmentation score on the tail of SKH:HR2 mice after topical application; assay type: in vivo; details: for depigmenting activity (clinical pigmentation score): 4 weeks
Protocol: (§1) The depigmenting activity of fluocinolone acetonide and of hydrocortisone was evaluated on the tail of female SKH:HR2 mice that were 6 weeks old at the beginning of the study. The products were applied topically (20 μl of product to the tail), 5 days a week for 4 weeks. Each group contains 5 animals:
Clinical observations: once a week the pigmentation is scored on a scale ranging from 0 (base pigmentation) to −4 (total depigmentation).
The depigmenting activities of three corticosteroids, fluocinolone acetonide, desonide and β-methasone valerate, were evaluated on the tail of female SKH:HR2 mice that were 8 weeks old at the beginning of the study. The products were applied topically (20 μl of product to the tail), 5 days a week for 5 weeks. Each group contains 6 animals.
Clinical observations: once a week, the pigmentation is scored on a scale ranging from 0 (base pigmentation) to −4 (total depigmentation).
The depigmenting activity of fluocinolone acetonide and of desonide was evaluated on the tail of female SKH:HR2 mice that were 8 weeks old at the beginning of the study. The products were applied topically (20 μl of product to the tail), 5 days a week for 4 weeks.

[3] = system: tail of SKH:HR2 mice; experiment: Fontana-Masson-positive surface area in living epidermis of the tail (histology, image analysis); assay type: in vivo; details: 4 weeks
Protocol: as §1
A tail skin sample is taken at the end of the study and fixed with formol in order to carry out a histological analysis.
The epidermal surface area taken up by melanin is measured by image analysis on histological sections stained by the Fontana-Masson technique, which makes it possible to reveal the pigments. For each animal, the Fontana-Masson-positive surface area is measured by image analysis on five fields of interfollicular epidermis and weighted with respect to the length of corresponding epidermis in order to avoid any possible bias due to hyperplasia or atrophy of the epidermis. Since the horny layer is partially lost during the treatment of the samples, the measurement is carried out only in the living layers of the epidermis.

[4] = system: melasma; details: monotherapy; cited from earlier work

In the case of `CCC(=O)O[C@]1(C(=O)CCl)[C@@H](C)C[C@H]2[C@@H]3CCC4=CC(=O)C=C[C@]4(C)[C@@]3(F)[C@@H](O)C[C@@]21C` [clobetasol propionate], the “cases in which treatment had to be stopped due to local atrophy and telangiectasiae” value ([1]; 0.05% topical, stopped after 4 weeks) is listed as 30% and the “patients with lightening in whom the melasma reappeared at the same sites” value ([1]; 2 to 3 weeks after the treatment had been stopped) is listed as 57%.
For `CC1(C)O[C@@H]2C[C@H]3[C@@H]4C[C@H](F)C5=CC(=O)C=C[C@]5(C)[C@@]4(F)[C@@H](O)C[C@]3(C)[C@]2(C(=O)CO)O1` [fluocinolone acetonide], the “depigmenting activity (clinical pigmentation score)” value ([2]; Example 1, 0.0005% topical) was “remains substantial”, the “depigmentation of the tail (clinical pigmentation score)” value ([2]; Example 1, 0.01% topical, 5 days a week, after 4 weeks, compared with hydrocortisone at same concentration) was “marked depigmentation” and the “depigmentation observed (clinical pigmentation score)” value ([2]; Example 2, 0.01% topical, after 5 weeks) was “virtually total”. For the same compound, the “depigmenting activity compared with other corticosteroids” value ([2]; Example 2, equivalent concentration of 0.01%, 5 weeks) was “greater depigmenting activity than desonide and than β-methasone valerate”, the “depigmenting activity (clinical pigmentation score)” value ([2]; Example 3, 0.005% topical) was “very significant depigmenting activity” and the “depigmenting activity compared with desonide” value ([2]; Example 3, equivalent concentration, throughout the study (4 weeks)) was “remains greater than that of desonide”. The “decrease in the Fontana-Masson-positive surface area in the living layers of the tail epidermis” value ([3]; 0.0005% topical) was 72% and the “decrease in the Fontana-Masson-positive surface area in the living layers of the tail epidermis” value ([3]; 0.01% topical) was 85%.
For `C[C@]12CCC(=O)C=C1CC[C@@H]1[C@@H]2[C@@H](O)C[C@@]2(C)[C@H]1CC[C@]2(O)C(=O)CO` [hydrocortisone], the “depigmenting activity (clinical pigmentation score)” value ([2]; Example 1, 0.01% increased to 0.5% topical) was “only a very weak depigmenting activity” and the “change of Fontana-Masson-positive surface area” value ([3]; up to the concentration of 0.5% topical) was “does not significantly modify”.
In the case of `Oc1ccc(O)cc1` [hydroquinone], the “time necessary to obtain a significant result” value [4] is listed as 12 weeks.
For `CC1=C(/C=C/C(C)=C/C=C/C(C)=C/C(=O)O)C(C)(C)CCC1` [tretinoin], the “time necessary to obtain a significant result” value [4] is given as 40 weeks.
